The values that follow come from US10604554B2, “Double-acylated GLP-1 derivatives” (Novo Nordisk A/S, priority 2012, dated 2020).

Experiment [1] deals with T1, human GLP-1 receptor (Homo sapiens, UniProt P43220).
T1 construct: expressed in transfected cells; host or cells: BHK cells, clone FCW467-12A/KZ10-1 (parent line BHKTS13), further transfected with CRE luciferase
In words: GLP-1 receptor binding (SPA, displacement of 125I-GLP-1). An outline of the steps: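 Tracer [125I]-GLP-1(7-36)NH2 at 0.06 nM final competed on hamster stably transfected cell membranes captured by WGA SPA beads; 120 min, 30 °C, scintillation count.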
A general note: Loss of bound radioactivity is the signal in a displacement assay; it reports binding, not function.

Experiment [2] concerns the target T1, human GLP-1 receptor. As to the kind of experiment: In vitro potency (CRE luciferase; whole cells). The format is cell-based. The settings on record: for EC50: BHK cells. On the set-up: EC50/pM (ratio 1% HSA/0% HSA): unit not given here. The gist of the method: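 Reporter: CRE-luciferase in BHK cells stably expressing human GLP-1R, 5×10^3 cells/well; compounds tested in buffer containing 0% or 1% HSA.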

Where [3] appears, read: In vitro potency (CRE luciferase) EC50 (1% HSA), 1% HSA.
Where [4] appears, read: 0.001% HSA (low albumin), read-out: Receptor binding affinity IC50 (low HSA).
The mark [5] stands for this setting: 0% HSA, read-out: In vitro potency (CRE luciferase) EC50 (0% HSA).

Like-named read-outs stand apart in the source and are kept apart here.

T1 sequence (P43220 24-463): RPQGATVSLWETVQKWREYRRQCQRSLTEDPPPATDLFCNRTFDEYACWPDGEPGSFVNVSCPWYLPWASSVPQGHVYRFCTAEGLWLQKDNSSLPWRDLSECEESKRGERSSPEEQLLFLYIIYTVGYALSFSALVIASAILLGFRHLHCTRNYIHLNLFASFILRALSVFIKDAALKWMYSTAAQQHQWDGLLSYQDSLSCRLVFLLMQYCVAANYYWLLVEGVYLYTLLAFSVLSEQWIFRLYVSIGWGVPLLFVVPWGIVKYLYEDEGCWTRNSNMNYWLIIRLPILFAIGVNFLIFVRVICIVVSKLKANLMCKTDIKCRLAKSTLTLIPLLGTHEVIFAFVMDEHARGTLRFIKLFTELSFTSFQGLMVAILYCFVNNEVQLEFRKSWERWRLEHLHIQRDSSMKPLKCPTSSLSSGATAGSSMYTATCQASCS

By IC50 is commonly meant the concentration needed to halve the response being measured. A word on the EC50: it is the concentration at which the effect is half-maximal. As to `CC[C@H](C)[C@H](NC(=O)[C@H](Cc1ccccc1)NC(=O)[C@H](CCC(=O)O)NC(=O)[C@H](CCCCNC(=O)[C@@H](N)CCCCNC(=O)[C@@H](N)CCCCNC(=O)CC[C@H](NC(=O)CCCCCCCCCCCOc1ccc(C(=O)O)cc1)C(=O)O)NC(=O)[C@H](C)NC(=O)[C@H](C)NC(=O)[C@H](CCC(N)=O)NC(=O)CNC(=O)[C@H](CCC(=O)O)NC(=O)[C@H](CC(C)C)NC(=O)[C@H](Cc1ccc(O)cc1)NC(=O)[C@H](CO)NC(=O)[C@H](CO)NC(=O)[C@@H](NC(=O)[C@H](CC(=O)O)NC(=O)[C@H](CO)NC(=O)[C@@H](NC(=O)[C@H](Cc1ccccc1)NC(=O)[C@@H](NC(=O)CNC(=O)[C@H](CCC(=O)O)NC(=O)C(C)(C)NC(=O)[C@@H](N)Cc1c[nH]cn1)[C@@H](C)O)[C@@H](C)O)C(C)C)C(=O)N[C@@H](C)C(=O)N[C@@H](Cc1c[nH]c2ccccc12)C(=O)N[C@@H](CC(C)C)C(=O)N[C@H](C(=O)N[C@@H](CCCNC(=N)N)C(=O)NCC(=O)N[C@@H](CCCNC(=N)N)C(=O)N[C@@H](CCCCNC(=O)[C@@H](N)CCCCNC(=O)[C@@H](N)CCCCNC(=O)CC[C@H](NC(=O)CCCCCCCCCCCOc1ccc(C(=O)O)cc1)C(=O)O)C(=O)O)C(C)C` [Example 7, N^ε26-[(2S)-2-amino-6-[[(2S)-2-amino-6-[[(4S)-4-carboxy-4-[12-(4-carboxyphenoxy)dodecanoylamino]butanoyl]amino]hexanoyl]amino]hexanoyl], N^ε37-[(2S)-2-amino-6-[[(2S)-2-amino-6-[[(4S)-4-carboxy-4-[12-(4-carboxyphenoxy)dodecanoylamino]butanoyl]amino]hexanoyl]amino]hexanoyl]-[Aib^8,Arg^34,Lys^37]-GLP-1-(7-37)-peptide], the IC50 at human GLP-1 receptor [1] (Receptor binding affinity IC50 (high HSA), 2.0% HSA (high albumin)) was 106 nM; at human GLP-1 receptor [1] (Receptor binding affinity IC50 (low HSA), 0.001% HSA (low albumin)), 0.13 nM. On human GLP-1 receptor [2] (setting [3]), the EC50 amounted to 0.096 nM.

Consider `CC[C@H](C)[C@H](NC(=O)[C@H](Cc1ccccc1)NC(=O)[C@H](CCC(=O)O)NC(=O)[C@H](CCCCNC(=O)[C@@H](N)CCCCNC(=O)COCCOCCNC(=O)COCCOCCNC(=O)CC[C@H](NC(=O)CCCCCCCCCCCCCCC(=O)O)C(=O)O)NC(=O)[C@H](C)NC(=O)[C@H](C)NC(=O)[C@H](CCC(N)=O)NC(=O)CNC(=O)[C@H](CCC(=O)O)NC(=O)[C@H](CC(C)C)NC(=O)[C@H](Cc1ccc(O)cc1)NC(=O)[C@H](CO)NC(=O)[C@H](CO)NC(=O)[C@@H](NC(=O)[C@H](CC(=O)O)NC(=O)[C@H](CO)NC(=O)[C@@H](NC(=O)[C@H](Cc1ccccc1)NC(=O)[C@@H](NC(=O)CNC(=O)[C@H](CCC(=O)O)NC(=O)C(C)(C)NC(=O)[C@@H](N)Cc1c[nH]cn1)[C@@H](C)O)[C@@H](C)O)C(C)C)C(=O)N[C@@H](C)C(=O)N[C@@H](Cc1c[nH]c2ccccc12)C(=O)N[C@@H](CC(C)C)C(=O)N[C@H](C(=O)N[C@@H](CCCNC(=N)N)C(=O)NCC(=O)N[C@@H](CCCNC(=N)N)C(=O)N[C@@H](CCCCNC(=O)[C@@H](N)CCCCNC(=O)COCCOCCNC(=O)COCCOCCNC(=O)CC[C@H](NC(=O)CCCCCCCCCCCCCCC(=O)O)C(=O)O)C(=O)O)C(C)C` [Example 10, N^ε26-[(2S)-2-amino-6-[[2-[2-[2-[[2-[2-[2-[[(4S)-4-carboxy-4-(15-carboxypentadecanoylamino)butanoyl]amino]ethoxy]ethoxy]acetyl]amino]ethoxy]ethoxy]acetyl]amino]hexanoyl], N^ε37-[(2S)-2-amino-6-[[2-[2-[2-[[2-[2-[2-[[(4S)-4-carboxy-4-(15-carboxypentadecanoylamino)butanoyl]amino]ethoxy]ethoxy]acetyl]amino]ethoxy]ethoxy]acetyl]amino]hexanoyl]-[Aib^8,Arg^34,Lys^37]-GLP-1-(7-37)-peptide], for which the IC50 at human GLP-1 receptor [1] (setting [4]) is 0.84 nM. Also, the results for the EC50 at human GLP-1 receptor [2] (setting [5]) and at human GLP-1 receptor [2] (setting [3]) were 0.008 nM and 3.63 nM, respectively.

On to `CC[C@H](C)[C@H](NC(=O)[C@H](Cc1ccccc1)NC(=O)[C@H](CCC(=O)O)NC(=O)[C@H](CCCCNC(=O)[C@@H](N)CCCCNC(=O)[C@@H](N)CCCCNC(=O)CC[C@H](NC(=O)CC[C@H](NC(=O)CCCCCCCCCCCCCCC(=O)O)C(=O)O)C(=O)O)NC(=O)[C@H](C)NC(=O)[C@H](C)NC(=O)[C@H](CCC(N)=O)NC(=O)CNC(=O)[C@H](CCC(=O)O)NC(=O)[C@H](CC(C)C)NC(=O)[C@H](Cc1ccc(O)cc1)NC(=O)[C@H](CO)NC(=O)[C@H](CO)NC(=O)[C@@H](NC(=O)[C@H](CC(=O)O)NC(=O)[C@H](CO)NC(=O)[C@@H](NC(=O)[C@H](Cc1ccccc1)NC(=O)[C@@H](NC(=O)CNC(=O)[C@H](CCC(=O)O)NC(=O)C(C)(C)NC(=O)[C@@H](N)Cc1c[nH]cn1)[C@@H](C)O)[C@@H](C)O)C(C)C)C(=O)N[C@@H](C)C(=O)N[C@@H](Cc1c[nH]c2ccccc12)C(=O)N[C@@H](CC(C)C)C(=O)N[C@H](C(=O)N[C@@H](CCCNC(=N)N)C(=O)NCC(=O)N[C@@H](CCCNC(=N)N)C(=O)N[C@@H](CCCCNC(=O)[C@@H](N)CCCCNC(=O)[C@@H](N)CCCCNC(=O)CC[C@H](NC(=O)CC[C@H](NC(=O)CCCCCCCCCCCCCCC(=O)O)C(=O)O)C(=O)O)C(=O)O)C(C)C` [Example 12, N^ε26-[(2S)-2-amino-6-[[(2S)-2-amino-6-[[(4S)-4-carboxy-4-[[(4S)-4-carboxy-4-(15-carboxypentadecanoylamino)butanoyl]amino]butanoyl]amino]hexanoyl]amino]hexanoyl], N^ε37-[(2S)-2-amino-6-[[(2S)-2-amino-6-[[(4S)-4-carboxy-4-[[(4S)-4-carboxy-4-(15-carboxypentadecanoylamino)butanoyl]amino]butanoyl]amino]hexanoyl]amino]hexanoyl]-[Aib^8,Arg^34, Lys^37]-GLP-1-(7-37)-peptide], for which the IC50 at human GLP-1 receptor [1] (setting [4]) is 0.33 nM. The molecule further returned an IC50 (high HSA) at human GLP-1 receptor [1] (Receptor binding affinity IC50 (high HSA), 2.0% HSA (high albumin), heading: Receptor binding affinity IC50) of 222 nM. The EC50 at human GLP-1 receptor [2] (setting [5]) is 0.0055 nM; at human GLP-1 receptor [2] (setting [3]), 1.15 nM. Further, at human GLP-1 receptor [2] (ratio of EC50 at 1% HSA to EC50 at 0% HSA), the “EC50/pM (ratio 1% HSA/0% HSA)” value amounted to 194.
